# Molecular target: T1, P2X7 receptor (Homo sapiens, UniProt Q99572)
# T1 construct: host or cells: THP-1 cells differentiated with LPS and IFN-γ
# T1 sequence (Q99572 1-595): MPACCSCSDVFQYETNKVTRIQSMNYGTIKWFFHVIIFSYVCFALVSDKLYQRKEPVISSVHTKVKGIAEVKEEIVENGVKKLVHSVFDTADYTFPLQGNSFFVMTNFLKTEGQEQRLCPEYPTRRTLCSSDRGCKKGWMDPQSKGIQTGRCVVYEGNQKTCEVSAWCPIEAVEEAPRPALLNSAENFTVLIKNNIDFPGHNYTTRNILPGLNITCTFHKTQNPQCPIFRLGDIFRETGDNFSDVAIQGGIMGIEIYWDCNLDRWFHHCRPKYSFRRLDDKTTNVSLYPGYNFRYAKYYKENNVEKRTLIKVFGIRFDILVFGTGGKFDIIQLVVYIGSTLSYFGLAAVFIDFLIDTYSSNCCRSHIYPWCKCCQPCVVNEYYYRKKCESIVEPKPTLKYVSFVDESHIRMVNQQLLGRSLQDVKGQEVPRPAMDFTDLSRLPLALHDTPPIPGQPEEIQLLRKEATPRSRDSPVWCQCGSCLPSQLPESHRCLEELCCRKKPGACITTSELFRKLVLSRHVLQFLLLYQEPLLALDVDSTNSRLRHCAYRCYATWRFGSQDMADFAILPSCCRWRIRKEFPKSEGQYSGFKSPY
# Test: Alternate method for IL-1β release assay (differentiated THP-1 cells, BzATP-stimulated, ELISA)
# Assay type: cell-based
# Conditions: P2X7; 0.1 μM compound (plus symbols); read-out: IL-1β % inhib @ 0.1 μM
# Procedure: Alternate Method for IL-1β Release Assay
# THP-1 cells (ATCC Cat #285-IF-100) are plated in 96 well plates at a concentration of 200,000 cells per well and allowed to differentiate in RPMI-1640 media (ATCC Cat #30-2001) containing 10% FBS, 100 IU/mL penicillin, 100 ug/mL streptomycin, 100 ng/mL LPS and 100 ng/mL IFN-γ for 16 hours. Following differentiation, the cells are treated for an additional 2 hours in RPMI-1640 media containing 100 IU/mL penicillin, 100 ug/mL streptomycin and fresh LPS at 100 ng/mL. The cells are then pretreated for 30 minutes with the compound of interest at the appropriate concentration in RPMI media containing 100 IU/mL penicillin, 100 ug/mL streptomycin. Following the pretreatment 2′,3′-O-(4-benzoylbenzoyl)-adenosine 5′-triphosphate (Sigma Aldrich Cat# B6396) is added to a final concentration of 250 uM and the cells incubated for an additional 45 minutes. 30 uL of cell supernatant is then collected and IL-1β levels determined via ELISA (R&D systems Cat. # HSLB50) according to manufacturers recommendations using the Tecan Safire plate reader. Background adjusted IL-1β levels of drug treated and non-treated cells are used to calculate the percent inhibition.
row,inhibition at 0.1 µM [%],Compound
1,25 to 50,O=S(=O)(c1ccc(F)cc1F)N1CCc2c(ncnc2NCC23CC4CC(CC(C4)C2)C3)C1 [Compound 66]
2,> 75,O=C(c1c(Cl)cccc1Cl)N1CCc2c(ncnc2NCC23CC4CC(CC(C4)C2)C3)C1 [Compound 75]
3,> 75,"O=C(c1ccccc1)N1CCc2c(ncnc2NCC23CC4CC(CC(C4)C2)C3)C1 [Compound 77, {4-[(Adamantan-1-ylmethyl)-amino]-5,8-dihydro-6H-pyrido[3,4-d]pyrimidin-7-yl}-phenyl-methanone]"
4,> 75,O=C(c1cccc(F)c1)N1CCc2c(ncnc2NCC23CC4CC(CC(C4)C2)C3)C1 [Compound 83]
5,> 75,N#Cc1cccc(C(=O)N2CCc3c(ncnc3NCC34CC5CC(CC(C5)C3)C4)C2)c1 [Compound 97]
6,50 to 75,O=C(COc1ccccc1)N1CCc2c(ncnc2NCC23CC4CC(CC(C4)C2)C3)C1 [Compound 104]
7,25 to 50,COc1cccc(C(=O)N2CCc3c(ncnc3NCC34CC5CC(CC(C5)C3)C4)C2)c1 [Compound 105]
8,> 75,O=C(c1ccc(F)cc1)N1CCc2c(ncnc2NCC23CC4CC(CC(C4)C2)C3)C1 [Compound 106]
9,> 75,"O=C(C1CC1)N1CCc2c(ncnc2NCC23CC4CC(CC(C4)C2)C3)C1 [Compound 115, 4-[(Adamantan-1-ylmethyl)-amino]-5,8-dihydro-6H-pyrido[3,4-d]pyrimidin-7-yl-cyclopropyl-methanone]"
10,50 to 75,O=C(c1ccccc1F)N1CCc2c(ncnc2NCC23CC4CC(CC(C4)C2)C3)C1 [Compound 135]

# Same assay, conditions: P2X7; 0.3 μM compound (asterisk symbols); read-out: IL-1β % inhib @ 0.3 μM
row,inhibition at 0.3 µM [%],Compound
1,25 to 50,O=S(=O)(c1cc(F)ccc1F)N1CCc2c(ncnc2NCC23CC4CC(CC(C4)C2)C3)C1 [Compound 60]
2,50 to 75,O=S(=O)(c1cc(Cl)ccc1Cl)N1CCc2c(ncnc2NCC23CC4CC(CC(C4)C2)C3)C1 [Compound 61]
3,25 to 50,O=S(=O)(c1cc(Cl)ccc1F)N1CCc2c(ncnc2NCC23CC4CC(CC(C4)C2)C3)C1 [Compound 62]
4,> 75,O=S(=O)(c1c(F)cccc1F)N1CCc2c(ncnc2NCC23CC4CC(CC(C4)C2)C3)C1 [Compound 63]
5,25 to 50,Cc1ccc(S(=O)(=O)N2CCc3c(ncnc3NCC34CC5CC(CC(C5)C3)C4)C2)cc1Cl [Compound 64]
6,0 to 25,O=S(=O)(c1cc(Cl)cc(Cl)c1)N1CCc2c(ncnc2NCC23CC4CC(CC(C4)C2)C3)C1 [Compound 65]
7,> 75,O=S(=O)(c1c(Cl)cccc1Cl)N1CCc2c(ncnc2NCC23CC4CC(CC(C4)C2)C3)C1 [Compound 67]
8,0 to 25,O=S(=O)(c1ccc(F)cc1Cl)N1CCc2c(ncnc2NCC23CC4CC(CC(C4)C2)C3)C1 [Compound 68]
9,0 to 25,Cc1ccc(F)cc1S(=O)(=O)N1CCc2c(ncnc2NCC23CC4CC(CC(C4)C2)C3)C1 [Compound 69]
10,50 to 75,CC(C)S(=O)(=O)N1CCc2c(ncnc2NCC23CC4CC(CC(C4)C2)C3)C1 [Compound 70]
11,25 to 50,COc1ccc(C)cc1S(=O)(=O)N1CCc2c(ncnc2NCC23CC4CC(CC(C4)C2)C3)C1 [Compound 71]
12,25 to 50,COc1ccc(OC)c(S(=O)(=O)N2CCc3c(ncnc3NCC34CC5CC(CC(C5)C3)C4)C2)c1 [Compound 72]
13,0 to 25,Cc1cc(C)cc(S(=O)(=O)N2CCc3c(ncnc3NCC34CC5CC(CC(C5)C3)C4)C2)c1 [Compound 73]
14,25 to 50,N#Cc1ccccc1S(=O)(=O)N1CCc2c(ncnc2NCC23CC4CC(CC(C4)C2)C3)C1 [Compound 74]
15,> 75,COc1ccc(CC(=O)N2CCc3c(ncnc3NCC34CC5CC(CC(C5)C3)C4)C2)cc1 [Compound 80]
16,50 to 75,O=C(Cc1ccccc1)N1CCc2c(ncnc2NCC23CC4CC(CC(C4)C2)C3)C1 [Compound 81]
17,25 to 50,O=C(c1ccc(Cl)cc1)N1CCc2c(ncnc2NCC23CC4CC(CC(C4)C2)C3)C1 [Compound 82]
18,0 to 25,O=C(c1ccc(OC(F)(F)F)cc1)N1CCc2c(ncnc2NCC23CC4CC(CC(C4)C2)C3)C1 [Compound 84]
19,50 to 75,CCc1ccc(C(=O)N2CCc3c(ncnc3NCC34CC5CC(CC(C5)C3)C4)C2)cc1 [Compound 85]
20,> 75,Cc1cccc(C(=O)N2CCc3c(ncnc3NCC34CC5CC(CC(C5)C3)C4)C2)c1 [Compound 86]
21,> 75,O=C(c1ccc(F)c(F)c1)N1CCc2c(ncnc2NCC23CC4CC(CC(C4)C2)C3)C1 [Compound 88]
22,25 to 50,O=C(c1cccc(C(F)(F)F)c1)N1CCc2c(ncnc2NCC23CC4CC(CC(C4)C2)C3)C1 [Compound 89]
23,0 to 25,COc1ccc(C(=O)N2CCc3c(ncnc3NCC34CC5CC(CC(C5)C3)C4)C2)cc1 [Compound 90]
24,0 to 25,O=C(C(c1ccccc1)c1ccccc1)N1CCc2c(ncnc2NCC23CC4CC(CC(C4)C2)C3)C1 [Compound 92]

row,inhibition at 0.3 µM [%],Compound
1,50 to 75,O=C(Cc1ccc(F)cc1)N1CCc2c(ncnc2NCC23CC4CC(CC(C4)C2)C3)C1 [Compound 96]
2,25 to 50,O=C(c1ccc(C(F)(F)F)cc1)N1CCc2c(ncnc2NCC23CC4CC(CC(C4)C2)C3)C1 [Compound 98]
3,25 to 50,O=C(c1ccc(Cl)c(Cl)c1)N1CCc2c(ncnc2NCC23CC4CC(CC(C4)C2)C3)C1 [Compound 100]
4,0 to 25,COc1cc(OC)cc(C(=O)N2CCc3c(ncnc3NCC34CC5CC(CC(C5)C3)C4)C2)c1 [Compound 101]
5,50 to 75,O=C(c1c(F)cccc1F)N1CCc2c(ncnc2NCC23CC4CC(CC(C4)C2)C3)C1 [Compound 102]
6,> 75,O=C(CCc1ccccc1)N1CCc2c(ncnc2NCC23CC4CC(CC(C4)C2)C3)C1 [Compound 103]
7,50 to 75,CC(C)(C)C(=O)N1CCc2c(ncnc2NCC23CC4CC(CC(C4)C2)C3)C1 [Compound 107]
8,> 75,O=C(c1cccc(Cl)c1)N1CCc2c(ncnc2NCC23CC4CC(CC(C4)C2)C3)C1 [Compound 108]
9,> 75,O=C(COCc1ccccc1)N1CCc2c(ncnc2NCC23CC4CC(CC(C4)C2)C3)C1 [Compound 111]
10,> 75,O=C(c1ccc(Cl)cc1Cl)N1CCc2c(ncnc2NCC23CC4CC(CC(C4)C2)C3)C1 [Compound 113]
11,25 to 50,COc1cccc(CC(=O)N2CCc3c(ncnc3NCC34CC5CC(CC(C5)C3)C4)C2)c1 [Compound 116]
12,25 to 50,O=C(COc1ccc(Cl)cc1)N1CCc2c(ncnc2NCC23CC4CC(CC(C4)C2)C3)C1 [Compound 119]
13,25 to 50,O=C(Cc1ccc(Cl)cc1)N1CCc2c(ncnc2NCC23CC4CC(CC(C4)C2)C3)C1 [Compound 120]
14,25 to 50,O=C(c1ccc(C(F)(F)F)cc1F)N1CCc2c(ncnc2NCC23CC4CC(CC(C4)C2)C3)C1 [Compound 121]
15,0 to 25,O=C(c1cc(F)cc(C(F)(F)F)c1)N1CCc2c(ncnc2NCC23CC4CC(CC(C4)C2)C3)C1 [Compound 122]
16,0 to 25,O=C(c1cc(C(F)(F)F)ccc1Cl)N1CCc2c(ncnc2NCC23CC4CC(CC(C4)C2)C3)C1 [Compound 126]
17,> 75,O=C(c1c(F)cccc1Cl)N1CCc2c(ncnc2NCC23CC4CC(CC(C4)C2)C3)C1 [Compound 127]
18,> 75,Cc1nn(-c2ccccc2)nc1C(=O)N1CCc2c(ncnc2NCC23CC4CC(CC(C4)C2)C3)C1 [Compound 128]
19,> 75,O=C(c1cccnc1Oc1ccccc1)N1CCc2c(ncnc2NCC23CC4CC(CC(C4)C2)C3)C1 [Compound 129]
20,50 to 75,O=C(c1ccc(F)cc1F)N1CCc2c(ncnc2NCC23CC4CC(CC(C4)C2)C3)C1 [Compound 132]
21,25 to 50,Cc1ccccc1C(=O)N1CCc2c(ncnc2NCC23CC4CC(CC(C4)C2)C3)C1 [Compound 133]
22,> 75,O=C(c1cc(F)ccc1F)N1CCc2c(ncnc2NCC23CC4CC(CC(C4)C2)C3)C1 [Compound 134]
23,0 to 25,O=C(c1ccc(Cl)nc1)N1CCc2c(ncnc2NCC23CC4CC(CC(C4)C2)C3)C1 [Compound 136]
24,> 75,O=C(c1cccc(Cl)c1Cl)N1CCc2c(ncnc2NCC23CC4CC(CC(C4)C2)C3)C1 [Compound 137]

# From patent US20100022531A1, “NOVEL COMPOUNDS AS P2X7 MODULATORS AND USES THEREOF” (RENOVIS, INC., priority 2005, published 2010)
